What was measured:
[1] = target: T1, human recombinant Bcl-XL protein (Homo sapiens, UniProt Q07817); experiment: Fluorescence polarization test for inhibition of BCL-XL binding to FITC-BIM; conditions: 10 nM BCL-XL, 10 nM FITC-BIM, read-out: FP BCL-XL IC50
T1 construct: purchased Beijing Yiqiao Shenzhou Biotechnology Co., Ltd. 10455-H0SE
Experimental: Fluorescence polarization assay was used to evaluate the effect of the compounds of the present invention on the biological activity of BCL-XL.
The effects of the compounds on the biological activity of BCL-XL were evaluated by detecting the effects of the compounds on the binding activity of BCL-XL to BIM using an affinity assay method based on the principle of fluorescence polarization. The reaction buffer contains the following components: PBS (pH 7.4, 3 mM Na2HPO4, 155 mM NaCl, 1 mM KH2PO4), 1 mM DTT; human recombinant Bcl-XL protein (Item No. 10455-H0SE) (purchased from Beijing Yiqiao Shenzhou Biotechnology Co., Ltd.) was diluted to 10 nM with reaction buffer; FITC-labeled BIM polypeptide (purchased from Nanjing GenScript Biotechnology Co., Ltd) was diluted to 10 nM with reaction buffer.
The compounds were dissolved in 100% DMSO and diluted to 1 μM, followed by 4-fold serial dilutions in DMSO to a minimum concentration of 0.061 nM, each concentration point was further diluted 50-fold with reaction buffer.
3 μL of solution containing the compound and 12 μL of solution containing BCL-XL were added to the black 384-well assay plate, mixed well, and incubated at room temperature for 15 minutes. Subsequently, 15 μL of FITC-BIM solution was added, and the reaction mixture was incubated at room temperature for 30 minutes in the dark place, and then the fluorescence polarization was detected immediately on an Envision multi-plate reader (Perkin Elmer), with 480 nm as the excitation wavelength and 535 nm as the emission wavelength. In this experiment, the group without BCL-XL protein was used as a negative control (100% inhibition), and the group with BCL-XL protein but without the compound was added as a positive control (0% inhibition). The inhibition percentage of the compound to the affinity of BCL-XL can be calculated using the following equation: […]
(§1) The IC50 of the compound was calculated from 8 concentration points using XLfit (ID Business Solutions Ltd., UK) software by the following equation:
(§2) Y=Bottom+(Top−Bottom)/(1+10^((log IC50−X)*slope factor))
(§3) where Y is the inhibition percentage, X is the logarithm of the concentration of the compound to be tested, Bottom is the maximum inhibition percentage, Top is the minimum inhibition percentage, and slope factor is the slope coefficient of the curve.

[2] = system: RS4;11 cells (acute lymphoblastic leukemia cells); experiment: RS4;11 cell proliferation, CellTilter-Glo luminescence cell viability assay; assay type: cell-based; conditions: CTG readout after 48 hours
Experimental: The effects of the compounds of the present invention on the proliferation of RS4;11 cells were evaluated using a luminescence cell viability assay.
A CellTilter-Glo (CTG) Assay Kit is used to detect ATP, a key indicator of the metabolism of living cells, through a unique, highly sensitive and stable luciferase. The luminescent signal generated in the assay is proportional to the number of the viable cells in the medium, therefore the cell proliferation of RS4;11 can be determined.
CellTilter-Glo reagent (Promega, G7572) is composed of CellTilter-Glo lyophilized powder and CellTilter-Glo buffer, and the lyophilized powder can be dissolved in the buffer for use.
RS4;11 cells (ATCC, CRL-1873) were cultured in RPMI1640 complete medium (Thermofisher, 72400-047) containing 10% FBS (GBICO, 10099-141) and 100 units/ml penicillin-streptomycin solution (Thermofisher, 15140122)), when the cells covered 80-90% in the culture vessel, they were digested and dispersed with 0.25% trypsin (containing EDTA) (Thermofisher, 25200056) and then planted in a white 384-well plate (Thermofisher, 164610), and then the 384-well plate was incubated overnight in a 37° C., 5% CO2 incubator. Compounds were dissolved in 100% DMSO and diluted to […], followed by 4-fold serial dilutions with DMSO to a minimum concentration of 0.061 μM, and each concentration point was further diluted 50-fold with FBS-free RPMI1640 medium. If the IC50 of the compound is very low, the initial concentration of the compound can be reduced. After overnight, 3 μL of the compound diluted in the medium was added to each well, and the mixture was gently centrifuged to mix. The group without cells was used as a negative control (100% inhibition), and the group with 0.2% DMSO was used as a positive control (0% inhibition). The 384-well plate was placed in a 37° C., 5% CO2 incubator for further cultivation. After 48 hours, the plate was taken out and equilibrated to room temperature. 15 μl of CTG reagent was added to each well, the plate was shaken gently for 3 minutes to make sure that the cell lysis was carried out thoroughly, then the plate was kept for 10 minutes to stabilize the luminescence signal, then the luminescence signal was read by EnVision (Perkin Elmer).
The inhibition percentage of the compounds to RS4;11 cell proliferation can be calculated using the following equation:
Inhibition Percentage=100−100*(signal compound-signal negative control)/(signal positive control-signal negative control)
as §1
Y=Bottom+(Top−Bottom)/(1+10^((Log IC50−X)*slope factor))
wherein, Y is the inhibition percentage, Bottom is the bottom plateau of the curve (the bottom plateau value of the S-shaped curve), Top is the top plateau of the curve (the top plateau value of the S-shaped curve), and X is the logarithm of the concentration of the compound to be tested.

[3] = target: T2, human recombinant Bcl-2 protein (Homo sapiens, UniProt P10415); experiment: Fluorescence polarization test for inhibition of BCL-2 binding to FITC-BIM; conditions: 5 nM BCL-2, 5 nM FITC-BIM, read-out: FP BCL-2 IC50
T2 construct: purchased Beijing Yigiao Shenzhou Biotechnology Co., Ltd. 10195-HOSE
Experimental: Fluorescence polarization assay was used to evaluate the effect of the compounds of the present invention on the biological activity of BCL-2.
The effects of the compounds on the biological activity of BCL-2 were evaluated by determining the effects of the compounds on the binding activity of BCL-2 to leukemia pro-apoptotic protein (BIM) using an affinity assay method based on the principle of fluorescence polarization. The reaction buffer comprises the following components: PBS (pH 7.4, 3 mM Na2HPO4, 155 mM NaCl, 1 mM KH2PO4), 1 mM DTT; human recombinant Bcl-2 protein (Item No. 10195-HOSE) (purchased from Beijing Yigiao Shenzhou Biotechnology Co., Ltd.) was diluted to 5 nM with the reaction buffer; FITC-labeled BIM polypeptide (purchased from Nanjing GenScript Biotechnology Co., Ltd.) was diluted to 5 nM with the reaction buffer.
The compounds were dissolved in 100% DMSO and diluted to 0.1, 1, 10 μM, followed by 4-fold serial dilutions with DMSO to a minimum concentration of 0.0061, 0.061, 0.61 nM, each concentration point was further diluted 50-fold with the reaction buffer.
3 μL of solution containing the compound and 12 μL of solution containing BCL-2 were added to the black 384-well assay plate, mixed well, and incubated at room temperature for 15 minutes. Subsequently, 15 μL of FITC-BIM solution was added, and the reaction mixture was incubated at room temperature for 30 minutes in dark place, and then the fluorescence polarization was detected immediately on an Envision multi-mode reader (Perkin Elmer), with 480 nm as the excitation wavelength and 535 nm as the emission wavelength. In this experiment, the group without BCL-2 protein was used as a negative control (100% inhibition), and the group with BCL-2 protein but without the compound was used as a positive control (0% inhibition). The inhibition percentage of the compound to the affinity of BCL-2 can be calculated using the following equation: […]
as §1, §2, §3

T2 sequence (P10415 whole entry): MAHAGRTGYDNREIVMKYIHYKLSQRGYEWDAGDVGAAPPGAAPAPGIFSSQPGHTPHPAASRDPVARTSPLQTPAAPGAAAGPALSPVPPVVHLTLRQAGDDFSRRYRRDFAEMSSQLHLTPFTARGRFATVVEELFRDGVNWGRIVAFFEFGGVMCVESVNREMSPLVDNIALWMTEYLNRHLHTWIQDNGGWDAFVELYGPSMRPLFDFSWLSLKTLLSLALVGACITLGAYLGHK
T1 sequence (Q07817 whole entry): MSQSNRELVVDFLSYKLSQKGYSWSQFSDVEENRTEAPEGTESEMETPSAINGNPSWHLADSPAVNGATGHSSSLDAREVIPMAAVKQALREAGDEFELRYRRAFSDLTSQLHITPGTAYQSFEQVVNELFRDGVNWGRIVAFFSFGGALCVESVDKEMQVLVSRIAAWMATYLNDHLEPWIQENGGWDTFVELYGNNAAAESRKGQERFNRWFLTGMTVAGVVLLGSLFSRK

Row | Compound | IC50 [1] [nM] | IC50 [2] [nM] | IC50 [3] [nM] | IC50 ([2]; Homo sapiens, RS4-11) [nM]
1 | 2-((1H-Pyrrolo[2,3-b]pyridin-5-yl) oxy)-4-((R)-4-(((S)-4′-chloro-5- methyl-3,4,5,6-tetrahydro-[1,1′-biphenyl]- 2-yl)methyl)-2-methylpiperazn-1- yl)-N-((3-nitro-4-((((S)-4-(3-oxetan yl)morpholin-2-yl)methyl)amino) phenyl)sulfonyl)benzamide [Example 18] | > 1000 | 2.4 | 1.32 | 
2 | C[C@@H]1CN(c2ccc(C(=O)NS(=O)(=O)c3cc(F)c(NCC4CCOCC4)c([N+](=O)[O-])c3)c(Oc3cnc4[nH]ccc4c3)c2)CCN1CC1=C(c2ccc(Cl)cc2)CC(C)(C)CC1 [Example 1, (R)-2-((1H-pyrrolo[2,3-b]pyridin-5-yl)oxy)-4-(4-((4′-chloro-5,5-dimethyl-3,4,5,6-tetrahydro-[1,1′-biphenyl]-2-yl)methyl)-3-methylpiperazin-1-yl)-N-((3-fluoro-5-nitro-4-(((tetrahydro-2H-pyran-4-yl)methyl)amino)phenyl)sulfonyl)benzamide] | > 1000 |  | 2.05 | 4.73
3 | C[C@@H]1CN(c2ccc(C(=O)NS(=O)(=O)c3ccc(NCC4CCOCC4)c([N+](=O)[O-])c3)c(Oc3cnc4[nH]ccc4c3)c2)CCN1CC1=C(c2ccc(Cl)cc2)CC(C)(C)CC1 [Example 2, (R)-2-((1H-pyrrolo[2,3-b]pyridin-5-yl)oxy)-4-(4-((4′-chloro-5,5-dimethyl-3,4,5,6-tetrahydro-[1,1′-biphenyl]-2-yl)methyl)-3-methylpiperazin-1-yl)-N-((3-nitro-4-(((tetrahydro-2H-pyran-4-yl)methyl)amino)phenyl)sulfonyl) benzamide] | > 1000 |  | 2.56 | 11.1
4 | C[C@@H]1CN(c2ccc(C(=O)NS(=O)(=O)c3ccc(NCC4CCN(C5COC5)CC4)c([N+](=O)[O-])c3)c(Oc3cnc4[nH]ccc4c3)c2)CCN1CC1=C(c2ccc(Cl)cc2)CC(C)(C)CC1 [Example 3, (R)-2-((1H-pyrrolo[2,3-b]pyridin-5-yl)oxy)-4-(4-((4′-chloro-5,5-dimethyl-3,4,5,6-tetrahydro-[1,1′-biphenyl]-2-yl)methyl)-3-methylpiperazin-1-yl)-N-((3--nitro-4(((1-(3-oxetanyl)piperidin-4-yl)methyl)amino)phenyl)sulfonyl) benzamide] | > 1000 |  | 3.06 | 6.4
5 | C[C@@H]1CN(c2ccc(C(=O)NS(=O)(=O)c3cc(F)c(NCC4CCN(C5COC5)CC4)c([N+](=O)[O-])c3)c(Oc3cnc4[nH]ccc4c3)c2)CCN1CC1=C(c2ccc(Cl)cc2)CC(C)(C)CC1 [Example 4, (R)-2-((1H-pyrrolo[2,3-b]pyridin-5-yl)oxy)-4-(4-((4′-chloro-5,5-dimethyl-3,4,5,6-tetrahydro-[1,1′-biphenyl]-2-yl)methyl)-3-methylpiperazin-1-yl)-N-((3-fluoro-5-nitro-4-(((1-(3-oxetanyl)piperidin-4-yl)methyl)amino)phenyl)sulfonyl) benzamide] | 743 |  | 2.29 | 5.8
6 | C[C@@H]1CN(c2ccc(C(=O)NS(=O)(=O)c3ccc(NC[C@H]4COCCO4)c([N+](=O)[O-])c3)c(Oc3cnc4[nH]ccc4c3)c2)CCN1CC1=C(c2ccc(Cl)cc2)CC(C)(C)CC1 [Example 5, N-((4-((((S)-1,4-dioxan-2-yl)methyl)amino)-3-nitrophenyl)sulfonyl)-2-((1H-pyrrolo[2,3-b]pyridin-5-yl)oxy)-4-((R)-4-((4′-chloro-5,5-dimethyl-3,4,5,6-tetrahydro[1,1′-biphenyl]-2-yl)methyl)-3-methylpiperazin-1-yl) benzamide] | > 1000 |  | 1.54 | 2.75

Reference: US20230271959A1, “HETEROCYCLIC COMPOUND AS BCL-2 INHIBITOR” (Beijing Innocare Pharma Tech Co., Ltd., priority 2020, published 2023)
